What was measured:
SW-620 [1] = experiment: Cytotoxicity against human SW620 cells after 48 hrs by sulforhodamine B assay; assay type: cell-based; conditions: sw-620, 48 h
HCC 2998 = experiment: Cytotoxicity against human HCC2998 cells after 48 hrs by sulforhodamine B assay; assay type: cell-based; conditions: hcc 2998, 48 h
UACC-257 = experiment: Cytotoxicity against human UACC257 cells after 48 hrs by sulforhodamine B assay; assay type: cell-based; conditions: uacc-257, 48 h
M14 = experiment: Cytotoxicity against human M14 cells after 48 hrs by sulforhodamine B assay; assay type: cell-based; conditions: m14, 48 h
[2] = target: Epithelial discoidin domain-containing receptor 1 (Homo sapiens) (UniProt Q08345); experiment: Binding affinity to human DDR1 at 10 uM incubated for 1 hr by kinase binding assay relative to untreated control
HL-60(TB) = experiment: Cytotoxicity against human HL-60(TB) cells after 48 hrs by sulforhodamine B assay; assay type: cell-based
OVCAR-3 = experiment: Cytotoxicity against human OVCAR3 cells after 48 hrs by sulforhodamine B assay; assay type: cell-based; conditions: ovcar-3, 48 h
UACC-62 = experiment: Growth inhibition of human UACC62 cells after 48 hrs by sulforhodamine B assay; assay type: functional; conditions: UACC-62, 48 h
KM12 = experiment: Cytotoxicity against human KM12 cells after 48 hrs by sulforhodamine B assay; assay type: cell-based; conditions: km12, 48 h
[3] = target: RAC-beta serine/threonine-protein kinase (Homo sapiens) (UniProt P31751); experiment: Inhibition of human PKBbeta using gamma-33P-ATP as substrate assessed as enzyme functional activity at 1 uM by scintillation counting relative to untreated control; design: scale not given: the % may be the effect or the level left
LOX IMVI = experiment: Cytotoxicity against human LOXIMVI cells after 48 hrs by sulforhodamine B assay; assay type: cell-based
NCI-H522 = experiment: Growth inhibition of human NCI-H522 cells after 48 hrs by sulforhodamine B assay; assay type: functional; conditions: NCI-H522, 48 h
[4] = tested on: Receptor-type tyrosine-protein kinase FLT3 (Homo sapiens), P36888 [UNDEFINED MUTATION]; experiment: Binding affinity to human FLT3 ITD mutant at 10 uM incubated for 1 hr by kinase binding assay relative to untreated control
[5] = target: T1, Mitogen-activated protein kinase 12 (Homo sapiens) (UniProt P53778); experiment: Binding affinity to human p38-gamma at 10 uM incubated for 1 hr by kinase binding assay relative to untreated control
T1 sequence (whole entry): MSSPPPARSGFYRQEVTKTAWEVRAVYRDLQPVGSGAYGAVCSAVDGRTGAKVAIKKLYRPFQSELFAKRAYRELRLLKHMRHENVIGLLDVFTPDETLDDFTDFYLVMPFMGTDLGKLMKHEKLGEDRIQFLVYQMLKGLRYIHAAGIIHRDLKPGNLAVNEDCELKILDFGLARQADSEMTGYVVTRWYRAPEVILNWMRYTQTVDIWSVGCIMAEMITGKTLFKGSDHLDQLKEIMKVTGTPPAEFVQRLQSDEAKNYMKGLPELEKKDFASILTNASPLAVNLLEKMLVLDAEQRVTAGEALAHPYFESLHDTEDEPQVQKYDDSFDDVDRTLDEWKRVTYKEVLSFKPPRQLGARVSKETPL

[6] = target: Casein kinase I isoform gamma-2 (Homo sapiens) (UniProt P78368); experiment: Binding affinity to human CSNK1G2 at 10 uM incubated for 1 hr by kinase binding assay relative to untreated control
Malme-3M = experiment: Cytotoxicity against human MALME-3M cells after 48 hrs by sulforhodamine B assay; assay type: cell-based
K562 [7] = experiment: Cytotoxicity against human K562 cells after 48 hrs by sulforhodamine B assay; assay type: cell-based; conditions: k562, 48 h
SW-620 [8] = experiment: Growth inhibition of human SW620 cells after 48 hrs by sulforhodamine B assay; assay type: functional; conditions: SW-620, 48 h
HOP-92 = experiment: Cytotoxicity against human HOP92 cells after 48 hrs by sulforhodamine B assay; assay type: cell-based; conditions: hop-92, 48 h
786-0 = experiment: Growth inhibition of human 786-0 cells after 48 hrs by sulforhodamine B assay; assay type: functional; conditions: 786-0, 48 h
A549 [9] = experiment: Growth inhibition of human A549 cells after 48 hrs by sulforhodamine B assay; assay type: functional; conditions: A549, 48 h
SF-268 = experiment: Cytotoxicity against human SF268 cells after 48 hrs by sulforhodamine B assay; assay type: cell-based; conditions: sf-268, 48 h
HCT-15 = experiment: Growth inhibition of human HCT15 cells after 48 hrs by sulforhodamine B assay; assay type: functional; conditions: HCT-15, 48 h
HOP-62 = experiment: Growth inhibition of human HOP62 cells after 48 hrs by sulforhodamine B assay; assay type: functional; conditions: HOP-62, 48 h
DU-145 [10] = experiment: Cytotoxicity against human DU145 cells after 48 hrs by sulforhodamine B assay; assay type: cell-based; conditions: du-145, 48 h
MOLT-4 = experiment: Cytotoxicity against human MOLT4 cells after 48 hrs by sulforhodamine B assay; assay type: cell-based; conditions: molt-4, 48 h
SNB-75 = experiment: Growth inhibition of human SNB75 cells after 48 hrs by sulforhodamine B assay; assay type: functional; conditions: SNB-75, 48 h
BT-549 = experiment: Cytotoxicity against human BT549 cells after 48 hrs by sulforhodamine B assay; assay type: cell-based; conditions: bt-549, 48 h
DU-145 [11] = experiment: Growth inhibition of human DU145 cells after 48 hrs by sulforhodamine B assay; assay type: functional; conditions: DU-145, 48 h
U-251 = experiment: Growth inhibition of human U251 cells after 48 hrs by sulforhodamine B assay; assay type: functional; conditions: U-251, 48 h
OVCAR-5 = experiment: Cytotoxicity against human OVCAR5 cells after 48 hrs by sulforhodamine B assay; assay type: cell-based; conditions: ovcar-5, 48 h
MDA-MB-468 = experiment: Cytotoxicity against human MDA-MB-468 cells after 48 hrs by sulforhodamine B assay; assay type: cell-based; conditions: mda-mb-468, 48 h
[12] = target: Casein kinase I isoform alpha (Homo sapiens) (UniProt P48729); experiment: Binding affinity to human CSNK1A1 at 10 uM incubated for 1 hr by kinase binding assay relative to untreated control
NCI-H322M = experiment: Growth inhibition of human NCI-H322M cells after 48 hrs by sulforhodamine B assay; assay type: functional
[13] = target: Casein kinase I isoform gamma-3 (Homo sapiens) (UniProt Q9Y6M4); experiment: Binding affinity to human CSNK1G3 at 10 uM incubated for 1 hr by kinase binding assay relative to untreated control
K562 [14] = experiment: Growth inhibition of human K562 cells after 48 hrs by sulforhodamine B assay; assay type: functional; conditions: K562, 48 h
A549 [15] = experiment: Cytotoxicity against human A549 cells after 48 hrs by sulforhodamine B assay; assay type: cell-based; conditions: a549, 48 h
NCI-H23 = experiment: Cytotoxicity against human NCI-H23 cells after 48 hrs by sulforhodamine B assay; assay type: cell-based; conditions: nci-h23, 48 h
NCI-H460 = experiment: Growth inhibition of human NCI-H460 cells after 48 hrs by sulforhodamine B assay; assay type: functional; conditions: NCI-H460, 48 h
SNB-19 = experiment: Cytotoxicity against human SNB19 cells after 48 hrs by sulforhodamine B assay; assay type: cell-based; conditions: snb-19, 48 h
HT-29 = experiment: Growth inhibition of human HT-29 cells after 48 hrs by sulforhodamine B assay; assay type: functional; conditions: HT-29, 48 h

Sequence of Receptor-type tyrosine-protein kinase FLT3 (Homo sapiens), P36888 [UNDEFINED MUTATION] (P36888 whole entry, looked up, change not shown): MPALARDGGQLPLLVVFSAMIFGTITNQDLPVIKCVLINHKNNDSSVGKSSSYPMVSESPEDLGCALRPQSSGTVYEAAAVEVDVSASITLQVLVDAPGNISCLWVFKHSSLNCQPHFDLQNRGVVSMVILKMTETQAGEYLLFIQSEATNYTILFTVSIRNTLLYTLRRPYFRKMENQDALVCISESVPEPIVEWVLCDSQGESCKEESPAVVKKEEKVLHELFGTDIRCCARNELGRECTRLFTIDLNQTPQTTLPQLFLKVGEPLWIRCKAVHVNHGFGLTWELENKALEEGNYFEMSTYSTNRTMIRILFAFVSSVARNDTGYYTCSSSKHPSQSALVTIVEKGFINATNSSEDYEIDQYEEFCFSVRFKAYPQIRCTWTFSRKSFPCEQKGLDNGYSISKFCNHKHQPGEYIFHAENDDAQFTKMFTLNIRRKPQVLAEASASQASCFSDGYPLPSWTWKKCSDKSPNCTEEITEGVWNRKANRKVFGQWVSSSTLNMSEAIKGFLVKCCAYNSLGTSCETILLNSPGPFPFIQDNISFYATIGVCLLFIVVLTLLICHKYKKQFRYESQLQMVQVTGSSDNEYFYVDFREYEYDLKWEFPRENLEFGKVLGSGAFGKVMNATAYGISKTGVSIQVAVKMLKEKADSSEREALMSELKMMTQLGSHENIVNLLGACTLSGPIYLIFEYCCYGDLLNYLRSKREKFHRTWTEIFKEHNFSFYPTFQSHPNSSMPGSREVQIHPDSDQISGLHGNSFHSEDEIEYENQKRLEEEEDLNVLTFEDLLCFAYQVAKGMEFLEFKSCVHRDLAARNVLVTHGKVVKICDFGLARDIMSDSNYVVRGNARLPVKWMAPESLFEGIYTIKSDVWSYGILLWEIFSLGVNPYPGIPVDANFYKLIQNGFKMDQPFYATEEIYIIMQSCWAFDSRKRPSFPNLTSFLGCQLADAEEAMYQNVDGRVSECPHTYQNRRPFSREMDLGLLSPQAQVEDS
Sequence of Casein kinase I isoform gamma-3 (Homo sapiens) (Q9Y6M4 whole entry, looked up, canonical isoform): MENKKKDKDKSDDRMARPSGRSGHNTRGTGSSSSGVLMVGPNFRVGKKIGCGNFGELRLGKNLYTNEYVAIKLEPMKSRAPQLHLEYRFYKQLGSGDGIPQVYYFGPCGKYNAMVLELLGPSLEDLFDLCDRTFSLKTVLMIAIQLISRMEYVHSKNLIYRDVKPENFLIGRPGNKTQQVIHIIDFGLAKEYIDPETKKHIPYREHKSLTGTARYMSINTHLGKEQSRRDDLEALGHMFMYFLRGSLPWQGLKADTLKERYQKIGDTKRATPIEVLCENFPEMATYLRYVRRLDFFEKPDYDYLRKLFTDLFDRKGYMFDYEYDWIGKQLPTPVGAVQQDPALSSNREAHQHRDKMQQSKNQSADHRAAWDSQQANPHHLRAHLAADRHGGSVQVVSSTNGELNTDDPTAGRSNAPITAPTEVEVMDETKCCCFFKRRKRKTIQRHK
Sequence of RAC-beta serine/threonine-protein kinase (Homo sapiens) (P31751 whole entry): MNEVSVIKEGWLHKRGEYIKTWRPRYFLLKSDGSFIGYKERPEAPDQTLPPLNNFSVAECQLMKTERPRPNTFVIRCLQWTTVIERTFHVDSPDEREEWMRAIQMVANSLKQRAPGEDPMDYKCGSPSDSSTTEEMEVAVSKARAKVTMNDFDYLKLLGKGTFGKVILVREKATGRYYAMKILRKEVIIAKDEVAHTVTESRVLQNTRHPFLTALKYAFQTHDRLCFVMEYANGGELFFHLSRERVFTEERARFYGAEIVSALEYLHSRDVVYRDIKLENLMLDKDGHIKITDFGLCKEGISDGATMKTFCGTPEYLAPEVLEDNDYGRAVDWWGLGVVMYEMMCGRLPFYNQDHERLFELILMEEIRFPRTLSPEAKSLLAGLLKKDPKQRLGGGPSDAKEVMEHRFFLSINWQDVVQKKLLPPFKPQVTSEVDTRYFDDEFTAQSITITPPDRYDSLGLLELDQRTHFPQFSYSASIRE
Sequence of Epithelial discoidin domain-containing receptor 1 (Homo sapiens) (Q08345 whole entry, the tested form may be a part): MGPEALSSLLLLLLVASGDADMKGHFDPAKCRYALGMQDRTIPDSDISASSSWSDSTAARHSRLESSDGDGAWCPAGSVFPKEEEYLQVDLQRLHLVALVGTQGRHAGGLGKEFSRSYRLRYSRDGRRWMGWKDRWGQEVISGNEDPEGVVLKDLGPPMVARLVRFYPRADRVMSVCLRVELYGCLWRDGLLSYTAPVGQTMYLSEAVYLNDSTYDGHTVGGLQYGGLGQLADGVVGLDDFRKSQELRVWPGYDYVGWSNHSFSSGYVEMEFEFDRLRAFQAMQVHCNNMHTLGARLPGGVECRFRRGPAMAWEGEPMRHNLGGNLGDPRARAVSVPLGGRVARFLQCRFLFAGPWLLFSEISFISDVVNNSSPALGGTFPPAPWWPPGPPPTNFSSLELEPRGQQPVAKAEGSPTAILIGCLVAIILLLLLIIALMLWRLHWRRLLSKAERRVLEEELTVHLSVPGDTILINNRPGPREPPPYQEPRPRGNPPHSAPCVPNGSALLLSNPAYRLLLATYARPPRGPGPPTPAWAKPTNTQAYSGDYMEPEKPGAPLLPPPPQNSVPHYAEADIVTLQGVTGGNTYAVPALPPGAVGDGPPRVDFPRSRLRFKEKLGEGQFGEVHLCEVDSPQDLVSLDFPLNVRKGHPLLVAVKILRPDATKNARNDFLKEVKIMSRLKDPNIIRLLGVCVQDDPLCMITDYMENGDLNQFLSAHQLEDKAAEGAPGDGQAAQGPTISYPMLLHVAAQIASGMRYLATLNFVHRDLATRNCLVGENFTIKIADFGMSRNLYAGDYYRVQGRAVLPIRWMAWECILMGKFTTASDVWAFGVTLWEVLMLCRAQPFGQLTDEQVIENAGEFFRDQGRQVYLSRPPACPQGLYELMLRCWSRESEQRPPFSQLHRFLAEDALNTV
Sequence of Casein kinase I isoform gamma-2 (Homo sapiens) (P78368 whole entry, looked up, canonical isoform): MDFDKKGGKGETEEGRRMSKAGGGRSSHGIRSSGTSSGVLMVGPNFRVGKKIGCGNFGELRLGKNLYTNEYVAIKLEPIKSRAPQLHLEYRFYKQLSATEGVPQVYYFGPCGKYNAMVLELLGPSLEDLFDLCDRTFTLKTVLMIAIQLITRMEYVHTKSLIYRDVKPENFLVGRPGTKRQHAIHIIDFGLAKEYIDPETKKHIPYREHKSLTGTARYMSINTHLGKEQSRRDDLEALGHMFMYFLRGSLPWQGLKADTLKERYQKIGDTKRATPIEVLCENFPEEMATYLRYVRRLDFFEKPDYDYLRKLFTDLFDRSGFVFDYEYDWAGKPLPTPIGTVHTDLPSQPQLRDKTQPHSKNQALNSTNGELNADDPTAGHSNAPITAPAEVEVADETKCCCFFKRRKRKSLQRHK
Sequence of Casein kinase I isoform alpha (Homo sapiens) (P48729 2-337 limits assumed): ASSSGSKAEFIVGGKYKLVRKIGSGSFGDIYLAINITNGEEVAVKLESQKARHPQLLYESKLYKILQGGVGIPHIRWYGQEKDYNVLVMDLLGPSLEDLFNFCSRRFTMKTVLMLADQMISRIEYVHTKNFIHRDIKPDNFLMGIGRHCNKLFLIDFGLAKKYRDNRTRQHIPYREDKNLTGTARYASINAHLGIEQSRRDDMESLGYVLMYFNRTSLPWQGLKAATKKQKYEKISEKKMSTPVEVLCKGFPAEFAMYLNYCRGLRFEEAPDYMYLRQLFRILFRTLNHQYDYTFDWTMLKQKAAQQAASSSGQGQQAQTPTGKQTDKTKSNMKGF

## c1ccc(Cc2cnc(N3CCN(c4ncnc5ccccc45)CC3)nc2)cc1
SW-620 [1]
  LC50: 59.9 µM
HCC 2998
  LC50: > 100 µM
UACC-257
  LC50: 41.4 µM
M14
  LC50: 51.6 µM
[2]
  Activity: 47%
HL-60(TB)
  LC50: > 100 µM
OVCAR-3
  LC50: 48.2 µM
UACC-62
  TGI: 25.9 µM
KM12
  LC50: 50.1 µM
[3]
  Activity: 89%
LOX IMVI
  LC50: 44.3 µM
NCI-H522
  TGI: 40.3 µM
[4]
  Activity: 49%
[5]
  Activity: > 50%
[6]
  Activity: > 50%
Malme-3M
  LC50: 89.2 µM
K562 [7]
  LC50: > 100 µM
SW-620 [8]
  TGI: 27.7 µM
HOP-92
  LC50: 62 µM
786-0
  TGI: 36.7 µM
A549 [9]
  TGI: 35.7 µM
SF-268
  LC50: > 100 µM
HCT-15
  TGI: 63.2 µM
HOP-62
  TGI: 51.6 µM
DU-145 [10]
  LC50: 79.8 µM
MOLT-4
  LC50: > 100 µM
SNB-75
  TGI: 78.2 µM
BT-549
  LC50: 43 µM
DU-145 [11]
  TGI: 30.7 µM
U-251
  TGI: 24.6 µM
OVCAR-5
  LC50: > 100 µM
MDA-MB-468
  LC50: > 100 µM
[12]
  Activity: > 50%
NCI-H322M
  TGI: > 100 µM
[13]
  Activity: > 50%
K562 [14]
  TGI: > 100 µM
A549 [15]
  LC50: > 100 µM
NCI-H23
  LC50: > 100 µM
NCI-H460
  TGI: 23.7 µM
SNB-19
  LC50: > 100 µM
HT-29
  TGI: 35.1 µM

## O=C(c1cccc(Nc2ncnc3ccccc23)c1)N1CCN(c2ncc(Cc3ccccc3)cn2)CC1
SW-620 [1]
  LC50: > 100 µM
HCC 2998
  LC50: 8.91 µM
UACC-257
  LC50: 5.37 µM
M14
  LC50: 4.68 µM
[2]
  Activity: 28%
HL-60(TB)
  LC50: 6.76 µM
OVCAR-3
  LC50: > 100 µM
UACC-62
  TGI: 1.86 µM
KM12
  LC50: 6.61 µM
[3]
  Activity: 83%
LOX IMVI
  LC50: 5.13 µM
NCI-H522
  TGI: 2.09 µM
[4]
  Activity: > 50%
[5]
  Activity: 25%
[6]
  Activity: 43%
Malme-3M
  LC50: 5.25 µM
K562 [7]
  LC50: > 100 µM
SW-620 [8]
  TGI: 4.27 µM
HOP-92
  LC50: > 100 µM
786-0
  TGI: 6.61 µM
A549 [9]
  TGI: 3.09 µM
SF-268
  LC50: 5.01 µM
HCT-15
  TGI: 3.55 µM
HOP-62
  TGI: 3.47 µM
DU-145 [10]
  LC50: > 100 µM
MOLT-4
  LC50: > 100 µM
SNB-75
  TGI: 5.89 µM
BT-549
  LC50: 5.37 µM
DU-145 [11]
  TGI: 6.46 µM
U-251
  TGI: 6.61 µM
OVCAR-5
  LC50: > 100 µM
MDA-MB-468
  LC50: > 100 µM
[12]
  Activity: > 50%
NCI-H322M
  TGI: 4.79 µM
[13]
  Activity: > 50%
K562 [14]
  TGI: 2.23 µM
A549 [15]
  LC50: 8.13 µM
NCI-H23
  LC50: 6.92 µM
NCI-H460
  TGI: 4.27 µM
SNB-19
  LC50: > 100 µM
HT-29
  TGI: 9.33 µM

From ChEMBL document CHEMBL1782045, “Discovery, synthesis, and investigation of the antitumor activity of novel piperazinylpyrimidine derivatives” (Eur J Med Chem, 2011)
